The text below walks through data of article PMC9146163, “Novel Au Carbene Complexes as Promising Multi-Target Agents in Breast Cancer Treatment” (Pharmaceuticals, 2022).

Type in all cases: cell-based, human
Series [1] has as its system β-actin in MDA-MB-231 cells. Nature of the series: Actin immunofluorescence, MDA-MB-231. The conditions noted are these: 24 h; compound 1 at its IC50 value, LA 0.1 µM. As for the experimental part:
The MitoTracker Deep Red FM probe (MitoTracker Mitochondrion-Selective Probes, Invitrogen European Headquarters, Paisley, PA4 9RF, UK) was used for mitochondrial staining, as previously described. For immunofluorescence analysis, the cells were seeded and further processed, as reported by Iacopetta et al.. The primary antibodies used were: rabbit anti-β-Actin and vimentin (Santa Cruz Biotechnology, Dallas, TX, USA), mouse anti cytochrome c and NF-κB p65 (Abcam, Cambridge, UK), diluted 1:100 in bovine serum albumin (BSA) 2% overnight at 4 °C. The secondary antibodies were: Alexa Fluor® 488 conjugate goat-anti-rabbit and Alexa Fluor® 568 conjugate goat-anti-mouse (Thermo Fisher Scientific, MA, USA), diluted 1:500 and incubated for 2h at 37 °C. DAPI 0.2 μg/mL (Sigma Aldrich, Milan, Italy) was used for nuclei staining. […] All the images were acquired and processed using the LAS-X software.

Series [2] deals with MDA-MB-231 cells. Nature of the series: TUNEL assay, MDA-MB-231. As to conditions: IC50, 24 h. An excerpt:
Images are representative of three independent experiments.

Series [3] deals with caspases 3/7, 8, and 9 in MDA-MB-231 cells. Nature of the series: Caspase-Glo assay, MDA-MB-231. As to conditions: IC50 value, 24 h; vs vehicle. As for the experimental part: The activities of caspases 3/7, 8, and 9 were measured by using the Caspase-Glo Assay according to the manufacturer’s guidelines (Caspase-Glo 3/7, 8, and 9 Assay Systems, Promega Corporation, Madison, WI, USA), as already described. The luminescence was detected in a plate-reading luminometer (Synergy H1 Hybrid Reader, BioTek) for 30 min to 3 h (λex/em = 490/570 nm). Results were reported as signal-to-noise ratio (background was determined from the culture medium without cells). The experiments were performed in triplicate.

The subject of series [4] is Hek-293 cells. Nature of the series: MTT assay, normal Hek-293. As to conditions: up to the concentration of 200 μM. A general note: Formazan colour is commonly taken as a measure of viable cells.

Molecules are shown by their SMILES.

Consider `Cn1ccn(CC([O-])c2ccccc2)[c]1=[Au+]=[c]1n(C)ccn1CC([O-])c1ccccc1.[Cl-].[Na+].[Na+]` (stereo not drawn) [Compound 1], for which the “actin organization in MDA-MB-231 cells” value in series [1] is “altered actin bundles organization”. Also, in series [2], the “apoptosis (TUNEL), MDA-MB-231” value was “induced apoptosis”. In addition, in series [3], the “caspase-3 and -7 activity, MDA-MB-231” value is reported as “clear increase”; the “caspase-8 activity, MDA-MB-231” value is recorded as “significant rise”; the “caspase-9 activity, MDA-MB-231” value is given as “no increase”. The “cytotoxicity against the normal Hek-293 cells (in words)” value in series [4] is “complete lack of cytotoxicity”.
